Results on 31 compounds are retold here after PubChem BioAssay (NCI).

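All cell lines were grown in 96-well plates and treated with compound for 48 hours. Here, GI50 denotes the concentration required for 50% inhibition of growth. TGI denotes the concentration required for complete inhibition of growth.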

In one experiment the test system is PC-3 prostate. Nature of the experiment: NCI anticancer screen, dose series, 48 h.
Turning to `COc1cc(C2SCC(=O)N2c2ccc(NC(=O)c3ccc(N4C(=O)CSC4c4cc(OC)c(OC)c(OC)c4)cc3)cc2)cc(OC)c1OC` (stereo not given), the TGI was over 100 µM.

A further experiment concerns SF-539 CNS. Nature of the experiment: NCI anticancer screen, dose series, 48 h.
`CS(=O)(=O)OCCn1c(=O)n(CCOS(C)(=O)=O)c(=O)n(CCOS(C)(=O)=O)c1=O` came in with a TGI of over 100 µM.
Compound `CC(C)(C)NC(=O)/C(=C\Sc1ccccc1)c1ccc2c(c1)OCO2` yielded a TGI of over 100 µM.
The same measure, in the same setting: the same measure for `COCOc1ccc(Cn2c(=O)n(C)c(=O)c3c2ncn3C)cc1[N+](=O)[O-]`: over 100 µM; for `COC(=O)[C@]12CC[C@H]3CN(C(=O)OCc4ccccc4)[C@H]([C@H]31)[C@H](c1ccco1)N2S(=O)(=O)c1ccc(C)cc1`: over 100 µM.
The same measure, in the same setting: the same measure for `CSc1c(C#N)c(N)n2c1C(=O)N(c1ccccc1)C2=S`: over 100 µM.
The same measure, in the same setting: the same measure for `N#CCCN(CCC#N)c1ccc(/C=C2\N=C(c3ccccc3)N(c3ccc(Cl)cc3)C2=O)cc1`: over 100 µM; for `BrC/C=C/C[P+](c1ccccc1)(c1ccccc1)c1ccccc1`: 22.4 µM; for `Cc1cc(=O)c2c([nH]1)NS(=O)(=O)NC2=O`: over 100 µM.
Consider `COc1cc([N+](=O)[O-])c(OC)cc1-c1nc2sc(Cl)cn2c1/C=N/Nc1ccccn1`, for which the GI50 was 9.7 µM and the TGI is 16.8 µM.
`CC(=O)N/N=C1\NC(=O)C[C@H]2[C@@H]3CC=C4C[C@@H](OC(C)=O)CC[C@]4(C)[C@H]3CC[C@]12C` yielded a TGI of 25.9 µM.
For `C=C[C@@H]1C(CO)=CCC2[C@H]1CCC1C(C)(C)C(=O)CC[C@]21C` (stereo not given in full), the TGI is over 100 µM.
Same read-out and setting: the same measure for `COc1ccc2cc3c4cc5c(cc4cc[n+]3cc2c1OC)OCO5`: over 58.5 µM; for `CCN(CCO)CC1COc2ccccc2O1` (stereo not given): over 100 µM.
`O=c1oc(-c2ccc(O)c(O)c2)cc2cccc(O)c12`: the TGI was over 85.6 µM.
On the same count and under the same terms, next, `C=CCNC(=S)/N=C/c1c(O)c2ccccc2oc1=O`: over 100 µM; `O=C(NCCCN(CCCCN(CCCNC(=O)C(F)(F)F)Cc1ccccc1)Cc1ccccc1)C(F)(F)F`: 26.3 µM.
In the case of `CC(=O)N(C(C)=O)C1=C2c3ccccc3N(S(=O)(=O)c3ccccc3)C2n2c(=O)n(-c3ccccc3)c(=O)n2C1` (stereo not given), the TGI is 38.5 µM.
`Clc1ccc(-c2nn3c(-c4ccncc4)nnc3s2)cc1` came in with a TGI of over 100 µM.
With `O=C1/C(=C\c2cccc(Oc3ccccc3)c2)S(=O)(=O)C(c2ccccc2)N1Cc1ccccc1` (stereo not given), the TGI is over 100 µM.
As to `O=C(NC(Cc1ccc(I)cc1)C(=O)O)c1ccc(I)cc1` (stereo not given), the TGI was over 100 µM.
Regarding `O=[N+]([O-])/C(C(Cl)=C(Cl)Cl)=C(\Nc1cccc2cccnc12)SCc1ccccc1`, the TGI is 32.6 µM.
For the compound `C(=N\NC1=NCCCN1)/c1ccc2ccccc2c1`, the TGI is 31.1 µM.
On the same count and under the same terms, next, `O=C(NCCN1CCOCC1)c1ccc2cc(C(=O)N3CC(CCl)c4ccc([N+](=O)[O-])cc43)[nH]c2c1` (stereo not given): over 100 µM.
Still for that read-out and setting: the same measure for `Cc1cc2[nH]c3[nH]c(=O)[nH]c(=O)c3c2cc1C`: over 100 µM.
On the same count and under the same terms, next, `O=c1ccc2cc3ccc4cccc5ccc(c2o1)c3c45`: 21.9 µM; `O=S(=O)(O)c1cc2ccc1/C=C\c1ccc(cc1S(=O)(=O)O)N=Nc1ccc(c(S(=O)(=O)O)c1)/C=C\c1ccc(cc1S(=O)(=O)O)N=N2`: over 100 µM; `COc1cc(C2SCC(=O)N2c2ccc(NC(=O)c3ccc(N4C(=O)CSC4c4cc(OC)c(OC)c(OC)c4)cc3)cc2)cc(OC)c1OC` (stereo not given): over 100 µM.

A further experiment deals with SNB-75 CNS. Nature of the experiment: NCI anticancer screen, dose series, 48 h.
Compound `CS(=O)(=O)OCCn1c(=O)n(CCOS(C)(=O)=O)c(=O)n(CCOS(C)(=O)=O)c1=O` displayed a TGI of over 100 µM.
Still for that read-out and setting: the same measure for `CC(=O)O[C@]12CCCCCC1C1(O)C(O)CCC[C@H]12` (stereo not given in full): over 100 µM; for `COCOc1ccc(Cn2c(=O)n(C)c(=O)c3c2ncn3C)cc1[N+](=O)[O-]`: over 100 µM.
Still for that read-out and setting: the same measure for `CSc1c(C#N)c(N)n2c1C(=O)N(c1ccccc1)C2=S`: over 100 µM; for `BrC/C=C/C[P+](c1ccccc1)(c1ccccc1)c1ccccc1`: 78.3 µM; for `NNC(=O)c1ccc[n+](CCc2ccccc2)c1`: over 100 µM.
In turn, `COc1cc(NS(C)(=O)=O)ccc1N1Cc2cnc3ccc4[nH]c(C)cc1c4c23` yielded a TGI of 46.5 µM.
Same read-out and setting: next, `Cc1cc(=O)c2c([nH]1)NS(=O)(=O)NC2=O`: over 100 µM; `CC(=O)N/N=C1\NC(=O)C[C@H]2[C@@H]3CC=C4C[C@@H](OC(C)=O)CC[C@]4(C)[C@H]3CC[C@]12C`: 46.9 µM; `COc1ccc2cc3c4cc5c(cc4cc[n+]3cc2c1OC)OCO5`: 67 µM.
Same read-out and setting: the same measure for `O=c1oc(-c2ccc(O)c(O)c2)cc2cccc(O)c12`: over 100 µM; for `C=CCNC(=S)/N=C/c1c(O)c2ccccc2oc1=O`: over 100 µM; for `O=C(NCCCN(CCCCN(CCCNC(=O)C(F)(F)F)Cc1ccccc1)Cc1ccccc1)C(F)(F)F`: 27.9 µM.
The compound `CC(=O)N(C(C)=O)C1=C2c3ccccc3N(S(=O)(=O)c3ccccc3)C2n2c(=O)n(-c3ccccc3)c(=O)n2C1` (stereo not given) returned a TGI of 51.3 µM.
Still for that read-out and setting: next, `O=C(NC(Cc1ccc(I)cc1)C(=O)O)c1ccc(I)cc1` (stereo not given): over 100 µM; `O=[N+]([O-])/C(C(Cl)=C(Cl)Cl)=C(\Nc1cccc2cccnc12)SCc1ccccc1`: 40.9 µM.
Still for that read-out and setting: next, `C(=N\NC1=NCCCN1)/c1ccc2ccccc2c1`: 18.4 µM; `Cc1cc2[nH]c3[nH]c(=O)[nH]c(=O)c3c2cc1C`: over 100 µM.
Still for that read-out and setting: next, `O=c1ccc2cc3ccc4cccc5ccc(c2o1)c3c45`: 50 µM; `O=S(=O)(O)c1cc2ccc1/C=C\c1ccc(cc1S(=O)(=O)O)N=Nc1ccc(c(S(=O)(=O)O)c1)/C=C\c1ccc(cc1S(=O)(=O)O)N=N2`: over 100 µM; `COc1cc(C2SCC(=O)N2c2ccc(NC(=O)c3ccc(N4C(=O)CSC4c4cc(OC)c(OC)c(OC)c4)cc3)cc2)cc(OC)c1OC` (stereo not given): over 100 µM.

For a further experiment, the system named is SR leukemia. Nature of the experiment: NCI anticancer screen, dose series, 48 h.
In turn, `CS(=O)(=O)OCCn1c(=O)n(CCOS(C)(=O)=O)c(=O)n(CCOS(C)(=O)=O)c1=O` showed a TGI of over 100 µM.
Still for that read-out and setting: the same measure for `CC(=O)O[C@]12CCCCCC1C1(O)C(O)CCC[C@H]12` (stereo not given in full): over 100 µM; for `CC(C)(C)NC(=O)/C(=C\Sc1ccccc1)c1ccc2c(c1)OCO2`: 83.8 µM.
On the same count and under the same terms, the same measure for `COCOc1ccc(Cn2c(=O)n(C)c(=O)c3c2ncn3C)cc1[N+](=O)[O-]`: over 100 µM.
Still for that read-out and setting: the same measure for `COC(=O)[C@]12CC[C@H]3CN(C(=O)OCc4ccccc4)[C@H]([C@H]31)[C@H](c1ccco1)N2S(=O)(=O)c1ccc(C)cc1`: 81 µM; for `Cc1cc(=O)c2c([nH]1)NS(=O)(=O)NC2=O`: over 100 µM.
As for `COc1cc([N+](=O)[O-])c(OC)cc1-c1nc2sc(Cl)cn2c1/C=N/Nc1ccccn1`, the GI50 was 0.0877 µM and the TGI stood at 12.1 µM.
As for `C=C[C@@H]1C(CO)=CCC2[C@H]1CCC1C(C)(C)C(=O)CC[C@]21C` (stereo not given in full), the TGI is over 100 µM.
`CCN(CCO)CC1COc2ccccc2O1` (stereo not given) showed a TGI of over 100 µM.
The compound `CC(=O)N(C(C)=O)C1=C2c3ccccc3N(S(=O)(=O)c3ccccc3)C2n2c(=O)n(-c3ccccc3)c(=O)n2C1` (stereo not given) came in with a TGI of 39.5 µM.
Same read-out and setting: next, `Clc1ccc(-c2nn3c(-c4ccncc4)nnc3s2)cc1`: over 100 µM; `O=C1/C(=C\c2cccc(Oc3ccccc3)c2)S(=O)(=O)C(c2ccccc2)N1Cc1ccccc1` (stereo not given): 46.2 µM.
For the compound `Cc1cc2[nH]c3[nH]c(=O)[nH]c(=O)c3c2cc1C`, the TGI was over 100 µM.
Still for that read-out and setting: the same measure for `COc1ccc(CC(O)CN2CCOCC2)cc1` (stereo not given): over 100 µM.
